Values after ≈ are worked out from the molar mass of the structure shown.
Assays:
[1] = Experiment 4: subacute toxicity to fish; type: in vivo, 2-year-old carps; conditions: carp, water; 0.2 ppm; 3 weeks; read-out: Survival rate after 3 weeks
Procedure: (§1) With respect to the compounds according to the present invention and the comparative compounds listed in Table 4, there were conducted tests on subacute toxicity to 2-year-old carps having an average weight of 20 g.
(§2) Ten 2-year-old carps were released in each of 25-liter water tanks equipped with an air-blowing apparatus and acclimatized to the surroundings while feeding for 10 days. Water in each of the water tanks was continuously replaced with fresh water so that the residence time of water in the water tanks is 6 hours. Each test compound was added to a predetermined quantity of supply water to prepare a 0.2 ppm aqueous solution of each compound, and each of the aqueous solutions was continuously added to the water in the tank. After three weeks, the hematocrit values of all the survival carps were determined. The hematocrit value used herein is intended to mean a volume percentage of erythrocyte contained in the blood.

[2] = tested on: carps; test: Experiment 4: subacute toxicity to fish; type: in vivo, 2-year-old carps; conditions: 0.2 ppm; 3 weeks
Procedure: as §1, §2

[3] = tested on: Hotarui (Scirpus juncoides); test: Experiment 2: herbicidal effects against Hotarui (pot test, granules); type: in vivo; conditions: 25 days
[4] = tested on: barnyard grass (Echinochloa crus-galli); test: Experiment 1: herbicidal effects against barnyard grass (pot test, emulsifiable concentrate); type: in vivo; conditions: 25 days
[5] = tested on: barnyard grass; test: Experiment 2: herbicidal effects against barnyard grass (pot test, granules); type: in vivo, Echinochloa crus-galli; conditions: 2.5 leaf-stage, 25 days
[6] = Experiment 3: acute toxicity to fish; type: in vivo, Black-carp fry; conditions: carp, water
Procedure: With respect to the compounds according to the present invention and the comparative compounds (Compound 10, Compound 12 and Compound 13), there were conducted tests on acute toxicity to carps.
In 25-liter water tanks made of glass was charged 20 liters of water. 12 Black-carp fry were released to each of the water tanks and bred while feeding for 7 days. Then, the whole quantity of water in each of the tanks was replaced with fresh water, and feeding to the carps was stopped. After three days, a prescribed amount of 1 weight % solution of a test compound in acetone was added to water in the water tank.
The number of survival fish in each tank was counted after 24 hours, 48 hours and 96 hours, successively.
The TLm (median tolerance limit=lethal concentration 50%) was determined by the Doudorff's method (Sewage & Ind. Wastes 23 (1951) 1380-1397).

[7] = tested on: broad-leaf weeds; test: Experiment 2: herbicidal effects against broad-leaf weeds (pot test, granules); type: in vivo; conditions: 25 days
[8] = tested on: Mizugayatsuri (Cyperus serotinus); test: Experiment 2: herbicidal effects against Mizugayatsuri (pot test, granules); type: in vivo; conditions: 25 days
[9] = 1.5 leaf-stage of barnyard grass, 150 g/10a.
[10] = 1.5 leaf-stage of barnyard grass, 300 g/10a.
[11] = 1.5 leaf-stage of barnyard grass, 600 g/10a.
[12] = 3 leaf-stage of barnyard grass, 150 g/10a.
[13] = 3 leaf-stage of barnyard grass, 300 g/10a.
[14] = 3 leaf-stage of barnyard grass, 600 g/10a.

SMILES | survival at 504 h [1] [%] | Average Hematocrit Value of survival fish [2] [%] | Herbicidal activity Hotarui (Scirpus juncoides) ([3]; 150 g/10a.) | Herbicidal activity Hotarui (Scirpus juncoides) ([3]; 300 g/10a.) | Herbicidal activity Hotarui (Scirpus juncoides) ([3]; 600 g/10a.) | herbicidal activity (barnyard grass) [4, 9] | herbicidal activity (barnyard grass) [4, 10] | herbicidal activity (barnyard grass) [4, 11] | herbicidal activity (barnyard grass) [4, 12] | herbicidal activity (barnyard grass) [4, 13] | herbicidal activity (barnyard grass) [4, 14] | herbicidal activity (barnyard grass) ([5]; 150 g/10a.) | herbicidal activity (barnyard grass) ([5]; 300 g/10a.) | herbicidal activity (barnyard grass) ([5]; 600 g/10a.) | Herbicidal activity broad-leaf weeds ([7]; 150 g/10a.) | Herbicidal activity broad-leaf weeds ([7]; 300 g/10a.) | Herbicidal activity broad-leaf weeds ([7]; 600 g/10a.) | Herbicidal activity Mizugayatsuri (Cyperus serotinus) ([8]; 150 g/10a.) | Herbicidal activity Mizugayatsuri (Cyperus serotinus) ([8]; 300 g/10a.) | Herbicidal activity Mizugayatsuri (Cyperus serotinus) ([8]; 600 g/10a.) | further results
CC1CCCCN1C(=O)SCCCCCl (stereo not drawn) [Compound 1, S-(4-chlorobutyl)-(2-methyl)-piperidine-1-carbothioate] | 100 | 30 | 4 (70 to 89%) | 5 (more than 90%) | 5 (more than 90%) | 5 (more than 90%) | 5 (more than 90%) | 5 (more than 90%) | 5 (more than 90%) | 5 (more than 90%) | 5 (more than 90%) | 5 (more than 90%) | 5 (more than 90%) | 5 (more than 90%) | 5 (more than 90%) | 5 (more than 90%) | 5 (more than 90%) | 4 (70 to 89%) | 4 (70 to 89%) | 5 (more than 90%) | LC50 at 48 h ([6]; 48 hrs, read-out: Median lethal concentration TLm (48hrs)): 11 µg/mL (≈ 44 µM); LC50 at 96 h ([6]; 96 hrs, read-out: Median lethal concentration TLm (96hrs)): 10 µg/mL (≈ 40 µM)
CC1CCCCN1C(=O)SCCCCCCl (stereo not drawn) [Compound 2, S-(5-chloropentyl)-(2-methyl)-piperidine-1-carbothioate] | 100 | 30 | 3 (50 to 69%) | 4 (70 to 89%) | 5 (more than 90%) | 5 (more than 90%) | 5 (more than 90%) | 5 (more than 90%) | 5 (more than 90%) | 5 (more than 90%) | 5 (more than 90%) | 5 (more than 90%) | 5 (more than 90%) | 5 (more than 90%) | 5 (more than 90%) | 5 (more than 90%) | 5 (more than 90%) | 3 (50 to 69%) | 4 (70 to 89%) | 5 (more than 90%) | –
CC1CCCCN1C(=O)SCCCCCCCl (stereo not drawn) [Compound 3, S-(6-chlorohexyl)-(2-methyl)-piperidine-1-carbothioate] | – | – | 3 (50 to 69%) | 4 (70 to 89%) | 5 (more than 90%) | 5 (more than 90%) | 5 (more than 90%) | 5 (more than 90%) | 4 (70 to 89%) | 5 (more than 90%) | 5 (more than 90%) | 5 (more than 90%) | 5 (more than 90%) | 5 (more than 90%) | 4 (70 to 89%) | 5 (more than 90%) | 5 (more than 90%) | 4 (70 to 89%) | 4 (70 to 89%) | 5 (more than 90%) | –
CC1CCCCN1C(=O)SCCCCCCCCCl (stereo not drawn) [Compound 4, S-(8-chlorooctyl)-(2-methyl)-piperidine-1-carbothioate] | – | – | 2 (30 to 49%) | 4 (70 to 89%) | 5 (more than 90%) | 5 (more than 90%) | 5 (more than 90%) | 5 (more than 90%) | 4 (70 to 89%) | 5 (more than 90%) | 5 (more than 90%) | 4 (70 to 89%) | 5 (more than 90%) | 5 (more than 90%) | 3 (50 to 69%) | 4 (70 to 89%) | 5 (more than 90%) | 2 (30 to 49%) | 3 (50 to 69%) | 5 (more than 90%) | –
CC1CCCCN1C(=O)SCCCCCCCCCCCl (stereo not drawn) [Compound 5, S-(10-chlorodecyl)-(2-methyl)-piperidine-1-carbothioate] | – | – | – | 4 (70 to 89%) | 5 (more than 90%) | – | 5 (more than 90%) | 5 (more than 90%) | – | 4 (70 to 89%) | 5 (more than 90%) | – | 5 (more than 90%) | 5 (more than 90%) | – | 4 (70 to 89%) | 5 (more than 90%) | – | 3 (50 to 69%) | 5 (more than 90%) | –
CC1CCC(C)CN(C(=O)SCCCCCCCl)C1 (stereo not drawn) [Compound 8, S-(6-chlorohexyl)-3,6-dimethyl-hexahydro-1H-azepine-1-carbothioate] | 100 | 35 | – | – | – | 5 (more than 90%) | 5 (more than 90%) | 5 (more than 90%) | 5 (more than 90%) | 5 (more than 90%) | 5 (more than 90%) | – | – | – | – | – | – | – | – | – | –

From US4400199A, “Thiolcarbamate compounds and their use as herbicides” (priority 1981, dated 1983)
